These are literature values, as cited in patent publication US20090196914A1, “LIPOSOMAL L-CARNITINE” (priority 2002, published 2009).

For the data set the following is noted: oral drug.

For orientation: bioavailability means dose-corrected exposure relative to a reference, in per cent. Turning to `CCC(=O)O[C@H](CC(=O)[O-])C[N+](C)(C)C` [Propionyl-L-carnitine], the bioavailability is 15%.
